Measured values from US12030888B2, “Himastatin derivatives, and processes of preparation thereof, and uses thereof” (priority 2021, dated 2024).
Values after ≈ are worked out from the molar mass of the structure shown. Where two headings read alike, the source gives them in different places. Numbered stars: 1 amine (or outer) side, 2 acyl side, 3 side chain; on linkers, the order of the positions; unused ones are H or OH. Square brackets hold non-standard residues; d marks the D form. Peptide text beside a SMILES is read from it. X1 = O=C([C@@H]1C[C@@]2(O)c3ccccc3N[C@H]2N1[*:1])[*:2]; X2 = O=C([C@H]1C[C@]2(O)c3ccccc3N[C@@H]2N1[*:1])[*:2]; X3 = O=C([C@@H]1C[C@H](O)CNN1[*:1])[*:2]; dPiz(5R-OH) = O=C(O)[C@H]1C[C@@H](O)CNN1; Lys(N3) = [N-]=[N+]=NCCCC[C@H](N)C(=O)O; NMeV = CN[C@H](C(=O)O)C(C)C; dHiv = CC(C)[C@@H](O)C(=O)O; Hiv = CC(C)[C@H](O)C(=O)O

Experiments:
[1] = tested on: Methicillin-Sensitive S. aureus (Newman); format: cell-based, Staphylococcus aureus; conditions: Newman
Protocol: (§1) Bacillus subtilis subsp. spizizenii (ATCC 6633) and Streptomyces himastatinicus (ATCC 53653) were obtained from the American Type Culture Collection (ATCC). Methicillin-resistant and methicillin-susceptible Staphylococcus aureus (Newman), and vancomycin-resistant (V583) and vancomycin-susceptible (T7) Enterococcus faecalis were obtained from the lab of Dr. Roby P. Bhattacharyya (Massachusetts General Hospital).^6 B. subtilis was grown in brain-heart infusion (BHI) medium at 37° C., S. himastatinicus was grown in tryptone-yeast extract broth (ISP medium 2) at 28° C., E. faecalis was grown in Todd-Hewitt broth, and all other organisms were grown in lysogeny broth (LB) medium at 37° C.
(§2) Minimum inhibitory concentration (MIC) was determined using the broth microdilution method. 20-fold stocks of compound in DMSO were diluted 10-fold in MHB medium and 100 μL of each were added to the first well of a 96-well plate. 50 μL of the first well was then serially diluted through 50 μL MHB medium in wells 2-11. To prepare the bacterial culture, an overnight culture was diluted in MHB until the turbidity matched that of McFarland standard 0.5. Then, the culture was diluted 1:100 and added to wells 1-11, resulting in 2-fold dilutions of antibiotic beginning at 64 μg/mL and a final inoculum of 5×10^5 cfu/mL. 100 μL of MHB medium was added to well 12 as a sterility control, and a row containing no antibiotic was used as a growth control. The plate was incubated at the organism's respective growth temperature overnight (B. subtilis) or 72 h (S. himastatinicus) and the MIC was determined using OD600.
(§3) Minimum inhibitory concentration (MIC) was determined using the broth microdilution method.^7 20-fold (1.28 mg/mL) stocks of compound in dimethylsulfoxide, stored as frozen (−80° C.) 30-μL aliquots, were diluted 10-fold in Mueller Hinton broth (MHB) and a 100-μL sample of each was added to the first well of a 96-well plate. A 50-μL sample of the first well was then serially diluted two-fold through 50-μL NMB medium in wells 2-11. A bacterial culture was prepared from a frozen (−80° C.) stock in the organism's respective growth medium and grown overnight. The culture was then diluted in MHB until the turbidity matched that of McFarland standard 0.5 by measuring the optical density at 600 nm (1×10^8 cfu/mL). Then, the culture was diluted 1:100 and a 50-μL aliquot was added to wells 1-11, resulting in 2-fold dilutions of antibiotic from 64 μg/mL down to 0.0625 μg/mL and a final inoculum of 5×10^5 cfu/mL. A 100-μL aliquot of MHB medium was added to well 12 as a sterility control, and a row containing no antibiotic was used as a growth control. The plate was incubated at the organism's respective growth temperature overnight or 72 h (S. himastatinicus). The MIC was determined by observing the well density by eye and, with the exception of S. himastatinicus which grows in solid colonies in media, was confirmed by measuring the optical density of each well at 600 nm. At least two assays were conducted for each organism on identical lots of compound. No degradation of compound stocks in dimethylsulfoxide was observed by LC-MS analysis after being subjected to multiple freeze-thaw cycles.

[2] = tested on: Vancomycin-Sensitive E. faecalis (T7); format: cell-based, Enterococcus faecalis; conditions: Vancomycin-Sensitive (T7)
Protocol: as §1, §2, §3

[3] = tested on: Bacillus subtilis (ATCC 6633); format: cell-based; conditions: for MIC (μg/mL) B. subtilis: ATCC 6633; for MIC in Bacillus subtilis: text and figure legend
Protocol: as §1, §2, §3

Gram-positive bacteria = format: cell-based; conditions: relative to (−)-himastatin (1) where a derivative
Protocol: as §1, §2, §3

[4] = tested on: Methicillin-Resistant Staphylococcus aureus; format: cell-based; conditions: Methicillin-Resistant
Protocol: as §1, §2, §3

[5] = tested on: Streptomyces himastatinicus (ATCC 53653); format: cell-based; conditions: ATCC 53653, 72 h
Protocol: as §1, §2, §3

[6] = tested on: Vancomycin-Resistant Enterococcus faecalis (V583); format: cell-based; conditions: Vancomycin-Resistant (V583)
Protocol: as §1, §2, §3

SMILES	MIC (μg/mL) MSSA [1]	MIC (μg/mL) VSE faecalis [2]	MIC (μg/mL) B. subtilis [3]	antibiotic activity (in words) (Gram-positive bacteria)	MIC (μg/mL) MRSA [4]	MIC (μg/mL) S. himastatinicus [5]	MIC (μg/mL) VRE faecalis [6]	MIC in Bacillus subtilis [3]	MIC in Bacillus subtilis ([3]; listed as TAMRA-himastatin)	antibiotic activity (in words) (Gram-positive bacteria; listed as (−)-15)	antibiotic activity (in words) (Gram-positive bacteria; listed as (−)-19)
CC(C)C[C@@H]1NC(=O)[C@H]2C[C@@H](O)CNN2C(=O)[C@H](C(C)C)OC(=O)[C@@H](C(C)C)NC(=O)[C@@H]2C[C@@]3(O)c4ccccc4N[C@H]3N2C(=O)[C@@H]([C@H](C)O)NC1=O [(+)-6, Himastatin Monomer, reference compound] (cyclo([Hiv][dPiz(5R-OH)]L[dT][X1][dV]))	>64 µg/mL	>64 µg/mL	>64 µg/mL	inactive	>64 µg/mL	>64 µg/mL	>64 µg/mL				
CC(C)C[C@@H]1NC(=O)[C@H]2C[C@@H](O)CNN2C(=O)[C@H](C(C)C)NC(=O)[C@@H](C(C)C)NC(=O)[C@@H]2C[C@@]3(O)c4ccccc4N[C@H]3N2C(=O)[C@@H]([C@H](C)O)NC1=O [(+)-25, Cyclic Hexapeptide] (cyclo(L[dT][X1][dV]V[dPiz(5R-OH)]))	>64 µg/mL	>64 µg/mL	>64 µg/mL		>64 µg/mL	>64 µg/mL	>64 µg/mL				
CC(C)C[C@@H]1NC(=O)[C@H]2C[C@@H](O)CNN2C(=O)[C@H](C(C)C)N(C)C(=O)[C@@H](C(C)C)NC(=O)[C@@H]2C[C@@]3(O)c4ccccc4N[C@H]3N2C(=O)[C@@H]([C@H](C)O)NC1=O [(+)-27, N-Methyl Cyclic Hexapeptide] (cyclo(L[dT][X1][dV][NMeV][dPiz(5R-OH)]))	>64 µg/mL	>64 µg/mL	>64 µg/mL		>64 µg/mL	>64 µg/mL	>64 µg/mL				
CC(C)C[C@@H]1NC(=O)[C@H]2CCCN2C(=O)[C@H](C(C)C)OC(=O)[C@@H](C(C)C)NC(=O)[C@@H]2C[C@@]3(O)c4ccccc4N[C@H]3N2C(=O)[C@@H]([C@H](C)O)NC1=O [(+)-29, Proline Cyclic Depsihexapeptide] (cyclo([Hiv][dP]L[dT][X1][dV]))	>64 µg/mL	>64 µg/mL	>64 µg/mL		>64 µg/mL	>64 µg/mL	>64 µg/mL				
CC(C)[C@@H]1OC(=O)[C@@H](C(C)C)NC(=O)[C@@H]2C[C@@]3(O)c4ccccc4N[C@H]3N2C(=O)[C@@H]([C@H](C)O)NC(=O)[C@H](CCCCN=[N+]=[N-])NC(=O)[C@H]2C[C@@H](O)CNN2C1=O [(+)-31, Azido Cyclic Depsihexapeptide] (cyclo([Hiv][dPiz(5R-OH)][Lys(N3)][dT][X1][dV]))	>64 µg/mL	>64 µg/mL	>64 µg/mL		>64 µg/mL	>64 µg/mL	>64 µg/mL				
CC(C)C[C@H]1NC(=O)[C@@H]2C[C@H](O)CNN2C(=O)[C@@H](C(C)C)OC(=O)[C@H](C(C)C)NC(=O)[C@H]2C[C@]3(O)c4ccccc4N[C@@H]3N2C(=O)[C@H]([C@@H](C)O)NC1=O [(−)-6, ent-himastatin monomer] (cyclo([dL]T[X2]V[dHiv][X3]))	>64 µg/mL	>64 µg/mL	>64 µg/mL		>64 µg/mL	8 µg/mL (≈ 10.8 µM)	>64 µg/mL				
CC(C)C[C@@H]1NC(=O)[C@H]2C[C@@H](O)CNN2C(=O)[C@H](C(C)C)OC(=O)[C@@H](C(C)C)NC(=O)[C@@H]2C[C@@]3(O)c4cc(-c5ccc6c(c5)[C@]5(O)C[C@H]7C(=O)N[C@H](C(C)C)C(=O)O[C@@H](C(C)C)C(=O)N8NC[C@H](O)C[C@@H]8C(=O)N[C@@H](CCCCNC(=O)c8ccc9c(c8)C(=O)OC98c9ccc(N(C)C)cc9Oc9cc(N(C)C)ccc98)C(=O)N[C@H]([C@H](C)O)C(=O)N7[C@@H]5N6)ccc4N[C@H]3N2C(=O)[C@@H]([C@H](C)O)NC1=O [(−)-25, TAMRA Himastatin Heterodimer]								6 µg/mL (≈ 3.14 µM)	~8 µg/mL (≈ 4.18 µM)		
CC(C)C[C@@H]1NC(=O)[C@H]2C[C@@H](O)CNN2C(=O)[C@H](C(C)C)NC(=O)[C@@H](C(C)C)NC(=O)[C@@H]2C[C@@]3(O)c4cc(-c5ccc6c(c5)[C@]5(O)C[C@H]7C(=O)N[C@H](C(C)C)C(=O)N[C@@H](C(C)C)C(=O)N8NC[C@H](O)C[C@@H]8C(=O)N[C@@H](CC(C)C)C(=O)N[C@H]([C@H](C)O)C(=O)N7[C@@H]5N6)ccc4N[C@H]3N2C(=O)[C@@H]([C@H](C)O)NC1=O [(−)-26, Himastatin Lactam Derivative]	16 µg/mL (≈ 10.8 µM)	16 µg/mL (≈ 10.8 µM)	8 µg/mL (≈ 5.39 µM)	modest reduction in antibiotic activity	32 µg/mL (≈ 21.6 µM)	>64 µg/mL	32 µg/mL (≈ 21.6 µM)			decreasing antibiotic activity	
CC(C)C[C@@H]1NC(=O)[C@H]2C[C@@H](O)CNN2C(=O)[C@H](C(C)C)N(C)C(=O)[C@@H](C(C)C)NC(=O)[C@@H]2C[C@@]3(O)c4cc(-c5ccc6c(c5)[C@]5(O)C[C@H]7C(=O)N[C@H](C(C)C)C(=O)N(C)[C@@H](C(C)C)C(=O)N8NC[C@H](O)C[C@@H]8C(=O)N[C@@H](CC(C)C)C(=O)N[C@H]([C@H](C)O)C(=O)N7[C@@H]5N6)ccc4N[C@H]3N2C(=O)[C@@H]([C@H](C)O)NC1=O [(−)-28, Himastatin N-Methyl Lactam Derivative]	>64 µg/mL	>64 µg/mL	>64 µg/mL	decreasing antibiotic activity	>64 µg/mL	>64 µg/mL	>64 µg/mL				
CC(C)C[C@@H]1NC(=O)[C@H]2CCCN2C(=O)[C@H](C(C)C)OC(=O)[C@@H](C(C)C)NC(=O)[C@@H]2C[C@@]3(O)c4cc(-c5ccc6c(c5)[C@]5(O)C[C@H]7C(=O)N[C@H](C(C)C)C(=O)O[C@@H](C(C)C)C(=O)N8CCC[C@@H]8C(=O)N[C@@H](CC(C)C)C(=O)N[C@H]([C@H](C)O)C(=O)N7[C@@H]5N6)ccc4N[C@H]3N2C(=O)[C@@H]([C@H](C)O)NC1=O [(−)-30, Himastatin Proline Derivative]	>64 µg/mL	>64 µg/mL	>64 µg/mL	complete abolishment of antibiotic activity	>64 µg/mL	>64 µg/mL	>64 µg/mL				antibiotic activity was completely abolished
